Experimental data: ChEMBL document CHEMBL3396999, “2-Benzisothiazolylimino-5-benzylidene-4-thiazolidinones as protective agents against cartilage destruction” (Bioorg Med Chem, 2015)
Calls of active or inactive are those of the source. The rule behind the calls is not given here.

Experiments:
[1] = Chondroprotective activity in IL-1beta-induced normal human articular chondrocytes assessed as increase in glycosaminoglycans level at 10 uM by 1,9-dimethylmethylene blue staining based spectrophotometry relative to IL-1beta; type: functional
[2] = Chondroprotective activity in IL-1beta-induced normal human articular chondrocytes assessed as reduction in nitric oxide level at 10 uM after 120 hrs by Griess reagent based method; type: functional
[3] = molecular target: Stromelysin-1 (Homo sapiens, UniProt P08254); experiment: Inhibition of MMP3 catalytic domain (unknown origin) assessed as reduction in hydrolysis of Mca-Pro-Leu-Gly-Leu-Dpa-Ala-Arg-NH2 substrate measured for 3 mins after substrate addition by fluorescence assay
Sequence of Stromelysin-1 (P08254 whole entry, the tested form may be a part): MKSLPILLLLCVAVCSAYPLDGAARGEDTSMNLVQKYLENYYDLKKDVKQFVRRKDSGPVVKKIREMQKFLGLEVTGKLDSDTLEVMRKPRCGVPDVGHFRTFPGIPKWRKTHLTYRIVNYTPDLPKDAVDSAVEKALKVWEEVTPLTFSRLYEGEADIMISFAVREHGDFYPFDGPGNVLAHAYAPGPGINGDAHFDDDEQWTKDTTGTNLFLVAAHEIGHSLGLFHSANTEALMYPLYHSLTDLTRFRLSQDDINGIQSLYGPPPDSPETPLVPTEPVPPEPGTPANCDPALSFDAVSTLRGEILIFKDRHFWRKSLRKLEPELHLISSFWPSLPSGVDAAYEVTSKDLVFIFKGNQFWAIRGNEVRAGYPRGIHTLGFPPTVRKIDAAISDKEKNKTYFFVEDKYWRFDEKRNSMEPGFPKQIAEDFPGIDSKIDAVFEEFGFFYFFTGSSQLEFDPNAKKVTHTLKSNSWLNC

[4] = molecular target: Collagenase 3 (Homo sapiens, UniProt P45452); experiment: Inhibition of MMP13 catalytic domain (unknown origin) assessed as reduction in hydrolysis of Mca-Pro-Leu-Gly-Leu-Dpa-Ala-Arg-NH2 substrate measured for 3 mins after substrate addition by fluorescence assay
[5] = Toxicity against normal human articular chondrocytes assessed as reduction in cell viability by MTT assay
[6] = Antioxidant activity assessed as AAPH radical scavenging activity assessed as Trolox equivalents by ORAC assay; type: physicochemical
[7] = molecular target: Nuclear factor NF-kappa-B complex (Homo sapiens) (UniProt Q00653+P19838+Q04206); experiment: Inhibition of nuclear factor-kappa-B in IL-1beta-induced normal human articular chondrocytes at 10 uM after 120 hrs by Western blotting method
Sequence of Nuclear factor NF-kappa-B complex (Homo sapiens) (P19838 whole entry, looked up): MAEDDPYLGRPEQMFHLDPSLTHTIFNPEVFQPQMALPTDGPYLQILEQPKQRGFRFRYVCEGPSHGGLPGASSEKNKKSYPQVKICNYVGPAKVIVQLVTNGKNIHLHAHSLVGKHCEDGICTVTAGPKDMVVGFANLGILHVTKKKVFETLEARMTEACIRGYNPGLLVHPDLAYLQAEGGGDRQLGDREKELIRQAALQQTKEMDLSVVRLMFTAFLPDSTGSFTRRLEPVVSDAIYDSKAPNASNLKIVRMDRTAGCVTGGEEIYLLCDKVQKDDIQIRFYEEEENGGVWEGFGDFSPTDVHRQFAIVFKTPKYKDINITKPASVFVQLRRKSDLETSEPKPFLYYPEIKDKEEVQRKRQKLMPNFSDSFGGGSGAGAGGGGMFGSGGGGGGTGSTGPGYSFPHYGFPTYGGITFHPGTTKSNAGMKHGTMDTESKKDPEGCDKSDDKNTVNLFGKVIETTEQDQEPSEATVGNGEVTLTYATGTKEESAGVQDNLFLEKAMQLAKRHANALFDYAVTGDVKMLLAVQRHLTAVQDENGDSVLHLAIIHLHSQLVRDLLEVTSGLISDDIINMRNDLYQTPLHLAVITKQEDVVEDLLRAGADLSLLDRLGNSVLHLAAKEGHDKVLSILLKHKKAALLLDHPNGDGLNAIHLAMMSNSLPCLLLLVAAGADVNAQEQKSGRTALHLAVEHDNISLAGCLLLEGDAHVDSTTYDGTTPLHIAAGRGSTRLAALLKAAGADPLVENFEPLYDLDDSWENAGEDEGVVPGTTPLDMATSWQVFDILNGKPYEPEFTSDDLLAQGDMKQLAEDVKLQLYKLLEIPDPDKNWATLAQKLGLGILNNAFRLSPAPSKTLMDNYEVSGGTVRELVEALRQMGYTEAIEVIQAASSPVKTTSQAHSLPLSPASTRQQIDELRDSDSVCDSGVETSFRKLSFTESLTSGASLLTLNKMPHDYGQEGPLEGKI
Sequence of Nuclear factor NF-kappa-B complex (Homo sapiens) (Q00653 whole entry, looked up): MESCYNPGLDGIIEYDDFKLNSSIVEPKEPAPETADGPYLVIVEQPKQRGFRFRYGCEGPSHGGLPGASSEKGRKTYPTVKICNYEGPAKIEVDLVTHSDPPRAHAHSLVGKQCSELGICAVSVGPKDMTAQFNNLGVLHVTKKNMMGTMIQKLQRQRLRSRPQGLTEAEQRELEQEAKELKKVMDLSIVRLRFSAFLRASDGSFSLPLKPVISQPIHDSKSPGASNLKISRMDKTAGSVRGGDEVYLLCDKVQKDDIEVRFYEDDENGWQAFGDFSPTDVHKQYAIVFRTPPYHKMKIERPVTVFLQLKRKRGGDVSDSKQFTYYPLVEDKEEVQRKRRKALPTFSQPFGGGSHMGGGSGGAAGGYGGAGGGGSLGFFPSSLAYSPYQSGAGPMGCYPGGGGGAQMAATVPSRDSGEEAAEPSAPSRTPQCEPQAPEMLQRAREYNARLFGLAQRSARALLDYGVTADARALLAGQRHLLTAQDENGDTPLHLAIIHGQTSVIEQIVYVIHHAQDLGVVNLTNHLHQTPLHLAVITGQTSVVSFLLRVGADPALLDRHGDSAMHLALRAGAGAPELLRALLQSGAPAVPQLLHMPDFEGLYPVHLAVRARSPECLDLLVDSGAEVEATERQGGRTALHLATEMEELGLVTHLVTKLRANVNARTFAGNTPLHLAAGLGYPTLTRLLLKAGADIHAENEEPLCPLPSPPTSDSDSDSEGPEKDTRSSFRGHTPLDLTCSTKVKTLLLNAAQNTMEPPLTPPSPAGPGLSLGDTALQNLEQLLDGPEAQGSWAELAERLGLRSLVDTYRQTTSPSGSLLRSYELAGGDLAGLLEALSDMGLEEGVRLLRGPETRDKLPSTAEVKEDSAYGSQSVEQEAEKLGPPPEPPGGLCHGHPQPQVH
Sequence of Nuclear factor NF-kappa-B complex (Homo sapiens) (Q04206 whole entry, looked up): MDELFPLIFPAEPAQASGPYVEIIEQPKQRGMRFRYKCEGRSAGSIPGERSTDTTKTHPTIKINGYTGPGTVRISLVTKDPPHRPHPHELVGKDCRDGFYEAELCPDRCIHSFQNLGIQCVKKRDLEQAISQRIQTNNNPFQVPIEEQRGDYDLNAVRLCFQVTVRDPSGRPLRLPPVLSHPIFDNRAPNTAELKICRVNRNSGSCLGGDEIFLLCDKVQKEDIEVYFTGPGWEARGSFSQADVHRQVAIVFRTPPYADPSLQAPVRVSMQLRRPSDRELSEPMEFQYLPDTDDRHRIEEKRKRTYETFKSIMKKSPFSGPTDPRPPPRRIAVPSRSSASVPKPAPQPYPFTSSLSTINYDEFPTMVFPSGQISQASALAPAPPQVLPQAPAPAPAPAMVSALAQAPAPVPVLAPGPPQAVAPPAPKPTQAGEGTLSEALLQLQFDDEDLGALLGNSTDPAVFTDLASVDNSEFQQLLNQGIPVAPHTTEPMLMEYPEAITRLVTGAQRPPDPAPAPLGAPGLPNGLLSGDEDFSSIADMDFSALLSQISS

[8] = Chondroprotective activity in IL-1beta-induced normal human articular chondrocytes assessed as MMP13 protein release at 10 uM after 120 hrs by ELISA method (reference value: 112 ng/ml); type: functional

Question: Which Activity [1] does the source give for `O=C1N/C(=N/c2nsc3ccccc23)S/C1=C\c1ccccc1` here?
Answer: 28%

Question: And the inhibition at 10 µM [2]?
Answer: 42%

Question: What about the IC50 [3] of the same compound?
Answer: ≥ 100 µM

Question: What about the IC50 [4] of the same compound?
Answer: 32 µM

Question: And the Activity [5]?
Answer: Non-toxic

Question: With `O=C1N/C(=N/c2nsc3ccccc23)S/C1=C\c1ccccc1Cl` as the compound, how does the Activity [1] read?
Answer: 34%

Question: What about the inhibition at 10 µM [2] of the same compound?
Answer: 13%

Question: What about the IC50 [3] of the same compound?
Answer: 6.19 µM

Question: What about the IC50 [4] of the same compound?
Answer: 89.4 µM

Question: What about the Activity [6] of the same compound?
Answer: 0.45

Question: What about the Activity [5] of the same compound?
Answer: Non-toxic

Question: What does the source list for `O=C1N/C(=N/c2nsc3ccccc23)S/C1=C\c1ccccc1[N+](=O)[O-]`?
Answer: Activity [1]: 31%; inhibition at 10 µM [2]: 48%; IC50 [3]: 43 µM; IC50 [4]: 64 µM; Activity [6]: >= 100; Activity [5]: Non-toxic

Question: For `O=C1N/C(=N/c2nsc3ccccc23)S/C1=C\c1ccc(Cl)cc1`, which Activity [1] is on record?
Answer: 30%

Question: And the inhibition at 10 µM [2]?
Answer: 46%

Question: And the IC50 [3]?
Answer: 65 µM

Question: And the IC50 [4]?
Answer: 25 µM

Question: What about the Activity [6] of the same compound?
Answer: 1.64

Question: What about the Activity [5] of the same compound?
Answer: Non-toxic

Question: What does the source list for `O=C1N/C(=N/c2nsc3ccccc23)S/C1=C/c1cccc(O)c1`?
Answer: Activity [1]: 32%; inhibition at 10 µM [2]: 9%; IC50 [3]: ≥ 100 µM; IC50 [4]: 26.9 µM; Activity [6]: 1.2; Activity [5]: Non-toxic

Question: With `O=C1N/C(=N/c2nsc3ccccc23)S/C1=C/c1ccccc1O` as the compound, how does the Activity [1] read?
Answer: 40%

Question: What about the inhibition at 10 µM [2] of the same compound?
Answer: 29%

Question: What about the IC50 [3] of the same compound?
Answer: 97.4 µM

Question: And the IC50 [4]?
Answer: ≥ 100 µM

Question: What about the Activity [6] of the same compound?
Answer: 0.8

Question: What about the Activity [5] of the same compound?
Answer: Non-toxic

Question: For `O=C1N/C(=N/c2nsc3ccccc23)S/C1=C\c1cccc([N+](=O)[O-])c1`, which Activity [1] is on record?
Answer: 37%

Question: What about the inhibition at 10 µM [2] of the same compound?
Answer: 46%

Question: What about the IC50 [3] of the same compound?
Answer: ≥ 100 µM

Question: What about the IC50 [4] of the same compound?
Answer: 55.9 µM

Question: What about the Activity [6] of the same compound?
Answer: >= 100

Question: What about the Activity [5] of the same compound?
Answer: Non-toxic

Question: What does the source list for `COc1cc(/C=C2\S/C(=N\c3nsc4ccccc34)NC2=O)ccc1O`?
Answer: Activity [1]: 40%; inhibition at 10 µM [2]: 66%; IC50 [3]: 3.15 µM; IC50 [4]: ≥ 100 µM; Activity [6]: 1.35; Activity [5]: Non-toxic; inhibition [7]: Active; Activity [8]: 4.3 ng/mL
